The values below come from patent US20030138785A1 (priority 2001, published 2003).

The subject of data set [1] is dihydrofolate reductase (DHFR). The following applies: cited from earlier work.
In data set [2] the test system is E. coli. The following applies: supplemented with appropriate nutrients; cited from earlier work.
The test system of data set [3] is S. cerevisiae. The following applies: supplemented with appropriate nutrients; cited from earlier work.
Data set [4] addresses T1, LexA-rGR and B42-DHFR (UniProt P06536+P0ABQ4).
T1 sequence (P06536 542-776 limits assumed): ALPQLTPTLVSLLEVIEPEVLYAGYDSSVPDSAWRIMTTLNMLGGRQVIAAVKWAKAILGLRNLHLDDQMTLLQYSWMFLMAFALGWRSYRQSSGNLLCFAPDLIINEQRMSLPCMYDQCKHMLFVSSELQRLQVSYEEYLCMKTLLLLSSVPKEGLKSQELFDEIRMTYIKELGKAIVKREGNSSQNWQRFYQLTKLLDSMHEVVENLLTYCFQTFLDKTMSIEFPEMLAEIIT
T1 sequence (P0ABQ4 1-159): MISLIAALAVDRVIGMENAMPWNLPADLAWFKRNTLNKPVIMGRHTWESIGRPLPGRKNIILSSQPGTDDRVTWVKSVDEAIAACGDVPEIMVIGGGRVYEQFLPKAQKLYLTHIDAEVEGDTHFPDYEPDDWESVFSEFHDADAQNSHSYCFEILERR
The following applies: shown by WO 01/53355; cited from earlier work.

Data set [5] deals with DHFR fusion protein. Nature of the data set: MP5 competition assay (yeast three-hybrid X-gal plate assay of lacZ transcription). Format: cell-based. The following applies: 1 μM D8M, X-gal plates, LexA/B42 chimeras of DHFR and rGR. The protocol: FIG. 7. MP5 Competition Assay. […] Columns A through H on each plate correspond to yeast strains containing different LexA- and/or B42-chimeras: A, LexA-Sec16p, B42-Sec6p. A is a direct protein-protein interaction used as a positive control. B, LexA, B42. C, LexA-eDHFR, B42-rGR. D, LexA-mDHFR, B42-rGR. E, LexA-rGR, B42-eDHFR. F, LexA-rGR, B42-mDHFR. G, LexA-eDHFR, B42. H, LexA, B42-rGR.
This competition assay was performed using D8M as the “well characterized” small molecule.

Turning to `CN(Cc1cnc2nc(N)nc(N)c2n1)c1ccc(C(=O)N[C@@H](CCC(=O)O)C(=O)O)cc1` [MTX, methotrexate], in data set [1], the “affinity of DHFR binding” value is “nM affinity” and the “affinity of DHFR inhibition” value is given as “pM affinity”. In addition, the “growth in the presence of MTX” value in data set [2] is reported as “grow in the presence of MTX”. Besides, the “growth in the presence of MTX” value in data set [3] is recorded as “grow in the presence of MTX”.

For `C[C@@H]1C[C@H]2C3CCC4=CC(=O)C=C[C@]4(C)[C@@]3(F)[C@@H](O)C[C@]2(C)[C@@]1(O)C(=O)NCCSCCCCCCCCSCC[C@H](NC(=O)c1ccc(N(C)Cc2cnc3nc(N)nc(N)c3n2)cc1)C(=O)O` (stereo partly drawn) [D8M], the “dimerization of LexA-rGR and B42-DHFR based on lacZ transcription” value in data set [4] was “mediate the dimerization of LexA-rGR and B42-DHFR”. The “induction of lacZ transcription” value in data set [5] is “induced lacZ transcription”.
